Drawing on ChEMBL document CHEMBL1909046, “DrugMatrix in vitro pharmacology data”, this text covers IC50 and Ki for 19 compounds.

As usually defined, the IC50 is the concentration at which inhibition is half-maximal. The Ki is the equilibrium dissociation constant of an inhibitor or competing ligand from its target.

The target of assay [1] is T1, Alpha-1A adrenergic receptor (Rattus norvegicus, UniProt P43140).
T1 sequence (P43140 whole entry): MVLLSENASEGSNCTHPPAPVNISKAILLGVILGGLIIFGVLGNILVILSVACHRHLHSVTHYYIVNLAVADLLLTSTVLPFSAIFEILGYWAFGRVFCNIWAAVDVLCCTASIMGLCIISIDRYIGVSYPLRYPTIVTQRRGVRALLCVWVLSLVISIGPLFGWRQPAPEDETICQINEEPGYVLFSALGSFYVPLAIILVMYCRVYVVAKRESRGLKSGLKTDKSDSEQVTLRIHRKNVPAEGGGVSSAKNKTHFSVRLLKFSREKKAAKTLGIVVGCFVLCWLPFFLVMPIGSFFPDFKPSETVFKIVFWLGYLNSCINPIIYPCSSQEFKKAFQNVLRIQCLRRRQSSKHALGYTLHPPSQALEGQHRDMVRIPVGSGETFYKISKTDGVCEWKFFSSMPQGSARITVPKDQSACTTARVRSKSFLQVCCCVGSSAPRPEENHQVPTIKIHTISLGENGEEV
The experiment in a line: DRUGMATRIX: Alpha-1A adrenergic receptor radioligand binding (ligand: prazosin). The note with it: Not Active = under 50% inhibition at 10 µM. In kind it is cell membranes, Wistar, Submaxillary gland, Membrane.

The nature of assay [2]: DRUGMATRIX: GABAA, Muscimol, Central radioligand binding (ligand: [3H] Muscimol). Type of assay: cell membranes, Rattus norvegicus, Wistar, Brain, Membrane. The note with it: Not Active = under 50% inhibition at 10 µM.
Assay [3] has as its target Mitogen-activated protein kinase 3 (Homo sapiens, UniProt P27361). The experiment in a line: DRUGMATRIX: Protein Serine/Threonine Kinase, ERK1 enzyme inhibition (substrate: Myelin Basic Protein). On the set-up: species or system Escherichia coli. The note with it: Not Active = under 50% inhibition at 10 µM.
In assay [4] the target is Kappa-type opioid receptor (Homo sapiens, UniProt P41145). The experiment in a line: DRUGMATRIX: Opiate kappa (OP2, KOP) radioligand binding (ligand: [3H] Diprenorphine). Type of assay: cell membranes, HEK293, Membrane. As to conditions: hek293; Not Active = under 50% inhibition at 10 µM.
The target of assay [5] is T2, Receptor-type tyrosine-protein phosphatase C (Homo sapiens, UniProt P08575).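 Note: inhibition of CD45 enzyme activity measured using DiFMUP as substrate; in other assays of this panel Not Active means under 50% inhibition at 10 µM.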
T2 sequence (P08575 whole entry): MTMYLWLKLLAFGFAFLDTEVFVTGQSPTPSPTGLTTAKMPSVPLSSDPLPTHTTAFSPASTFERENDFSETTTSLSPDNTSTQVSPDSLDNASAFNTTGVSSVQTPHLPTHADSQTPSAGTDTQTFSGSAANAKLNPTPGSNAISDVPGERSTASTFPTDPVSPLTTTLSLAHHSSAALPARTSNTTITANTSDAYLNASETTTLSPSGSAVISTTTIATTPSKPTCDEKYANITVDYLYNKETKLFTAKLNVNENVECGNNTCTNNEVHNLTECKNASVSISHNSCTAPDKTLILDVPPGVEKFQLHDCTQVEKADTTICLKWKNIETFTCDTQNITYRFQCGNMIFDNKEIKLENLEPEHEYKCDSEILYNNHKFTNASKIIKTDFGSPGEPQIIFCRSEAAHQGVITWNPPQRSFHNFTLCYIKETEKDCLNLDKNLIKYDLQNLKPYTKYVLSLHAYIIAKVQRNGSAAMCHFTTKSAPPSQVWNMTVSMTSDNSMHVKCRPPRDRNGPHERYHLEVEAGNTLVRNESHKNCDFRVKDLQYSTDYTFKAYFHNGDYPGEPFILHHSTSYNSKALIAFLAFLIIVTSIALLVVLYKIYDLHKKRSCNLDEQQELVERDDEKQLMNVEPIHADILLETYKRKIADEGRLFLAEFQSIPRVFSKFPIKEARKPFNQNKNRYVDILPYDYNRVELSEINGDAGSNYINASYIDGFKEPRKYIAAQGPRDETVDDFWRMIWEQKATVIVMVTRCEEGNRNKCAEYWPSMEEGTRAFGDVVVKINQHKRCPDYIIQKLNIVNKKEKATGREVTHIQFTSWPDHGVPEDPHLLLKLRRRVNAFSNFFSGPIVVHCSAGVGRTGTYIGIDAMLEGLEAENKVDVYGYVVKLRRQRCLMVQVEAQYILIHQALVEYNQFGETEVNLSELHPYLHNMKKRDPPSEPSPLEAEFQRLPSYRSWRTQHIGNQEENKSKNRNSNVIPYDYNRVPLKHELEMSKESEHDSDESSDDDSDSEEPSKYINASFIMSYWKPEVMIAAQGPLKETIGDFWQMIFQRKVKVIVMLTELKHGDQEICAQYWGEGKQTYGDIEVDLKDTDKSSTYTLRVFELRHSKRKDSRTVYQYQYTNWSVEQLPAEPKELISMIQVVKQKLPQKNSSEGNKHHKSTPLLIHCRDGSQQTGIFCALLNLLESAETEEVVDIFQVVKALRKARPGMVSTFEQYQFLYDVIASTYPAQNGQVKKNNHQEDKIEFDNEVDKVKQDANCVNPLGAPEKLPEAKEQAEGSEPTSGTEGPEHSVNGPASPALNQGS
On the set-up: species or system Escherichia coli.

Assay [6] concerns the target Cannabinoid receptor 1 (Homo sapiens, UniProt P21554). Type of assay: cell membranes, Chem-1, Membrane. As to conditions: chem-1. Note: in other assays of this panel Not Active means under 50% inhibition at 10 µM.

Cannabinoid receptor 1, sequence (P21554 whole entry): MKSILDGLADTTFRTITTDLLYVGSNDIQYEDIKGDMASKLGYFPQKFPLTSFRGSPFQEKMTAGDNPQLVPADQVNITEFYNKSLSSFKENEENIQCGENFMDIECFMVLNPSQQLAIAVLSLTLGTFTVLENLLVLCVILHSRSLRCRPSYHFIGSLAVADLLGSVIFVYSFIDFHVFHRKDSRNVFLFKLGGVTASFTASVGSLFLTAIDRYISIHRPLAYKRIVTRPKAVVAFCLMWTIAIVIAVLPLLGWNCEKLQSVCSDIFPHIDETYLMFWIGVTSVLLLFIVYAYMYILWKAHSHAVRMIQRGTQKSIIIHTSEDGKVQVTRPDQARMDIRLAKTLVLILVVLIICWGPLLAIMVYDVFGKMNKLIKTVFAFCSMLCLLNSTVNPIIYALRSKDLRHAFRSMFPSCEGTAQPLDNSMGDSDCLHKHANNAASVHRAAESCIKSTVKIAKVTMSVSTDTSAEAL
Kappa-type opioid receptor, sequence (P41145 whole entry): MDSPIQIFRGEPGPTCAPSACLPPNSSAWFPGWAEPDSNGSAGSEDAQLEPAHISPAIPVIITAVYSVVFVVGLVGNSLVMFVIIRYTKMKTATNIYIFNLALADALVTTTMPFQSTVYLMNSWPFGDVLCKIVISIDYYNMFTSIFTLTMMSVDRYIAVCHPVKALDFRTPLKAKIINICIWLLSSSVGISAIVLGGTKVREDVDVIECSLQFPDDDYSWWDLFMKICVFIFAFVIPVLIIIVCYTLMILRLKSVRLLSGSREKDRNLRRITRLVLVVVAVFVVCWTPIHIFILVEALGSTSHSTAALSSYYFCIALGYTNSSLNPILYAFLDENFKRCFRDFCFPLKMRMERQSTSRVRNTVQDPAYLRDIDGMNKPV
Mitogen-activated protein kinase 3, sequence (P27361 whole entry): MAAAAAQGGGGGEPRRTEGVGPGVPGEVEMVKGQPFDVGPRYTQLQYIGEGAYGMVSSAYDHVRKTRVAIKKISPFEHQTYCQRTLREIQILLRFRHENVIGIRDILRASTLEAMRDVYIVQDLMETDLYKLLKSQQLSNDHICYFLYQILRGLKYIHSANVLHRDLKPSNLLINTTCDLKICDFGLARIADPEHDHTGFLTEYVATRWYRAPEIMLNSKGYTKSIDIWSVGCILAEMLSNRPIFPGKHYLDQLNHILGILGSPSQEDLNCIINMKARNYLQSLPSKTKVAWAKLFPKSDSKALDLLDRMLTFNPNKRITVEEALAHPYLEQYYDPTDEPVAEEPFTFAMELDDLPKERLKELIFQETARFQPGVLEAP

`Cc1cc(O)cc(C)c1Cl` [CHLOROXYLENOL]: the concentration for half-maximal inhibition (IC50) entry in assay [1], in assay [2], in assay [3], in assay [4], in assay [5] and in assay [6] was “Not Active” in each case. In assay [2], the Ki entry is recorded as “Not Active”.

Turning to `CCCNC(=O)NS(=O)(=O)c1ccc(Cl)cc1` [CHLORPROPAMIDE], the IC50 entry in assay [1], in assay [2], in assay [3], in assay [4], in assay [5] and in assay [6] was “Not Active” each time. Further, in assay [2], the Ki result is “Not Active”.

Consider `NS(=O)(=O)c1cc(C2(O)NC(=O)c3ccccc32)ccc1Cl` (centres undefined) [CHLORTHALIDONE], for which the IC50 result in assay [1], in assay [2], in assay [3], in assay [4], in assay [5] and in assay [6] was “Not Active” in each case. Moreover, the inhibition constant Ki result in assay [2] is “Not Active”.

Consider `O=C(O)CC(O)(CC(=O)O)C(=O)O` [CITRIC ACID], for which the IC50 entry in assay [1], in assay [2], in assay [3], in assay [4], in assay [5] and in assay [6] was “Not Active” throughout. Also, the Ki entry in assay [2] is “Not Active”.

Turning to `CC(C)NCC(O)c1ccccc1Cl` (centres undefined) [CLORPRENALINE], the concentration for half-maximal inhibition (IC50) entry in assay [1], in assay [2], in assay [3], in assay [4], in assay [5] and in assay [6] was “Not Active” throughout. In assay [2], the Ki result was “Not Active”.

For `CN1CCN(C(c2ccccc2)c2ccccc2)CC1` [CYCLIZINE], the IC50 result in assay [1], in assay [2], in assay [3], in assay [4], in assay [5] and in assay [6] was “Not Active” each time. Besides, the Ki entry in assay [2] was “Not Active”.

As to `CN1C[C@@H]2C[C@H]1CN2c1cc2c(cc1F)c(=O)c(C(=O)O)cn2C1CC1` [DANOFLOXACIN], the IC50 result in assay [1], in assay [2], in assay [3], in assay [4], in assay [5] and in assay [6] was “Not Active” each time. Besides, the Ki result in assay [2] is “Not Active”.

Take `COc1cccc2c1C(=O)c1c(O)c3c(c(O)c1C2=O)C[C@@](O)(C(C)=O)C[C@@H]3O[C@H]1C[C@H](N)[C@H](O)[C@H](C)O1` [DAUNORUBICIN]: the IC50 entry in assay [1], in assay [2], in assay [3], in assay [4], in assay [5] and in assay [6] was “Not Active” in each case. Also, the Ki entry in assay [2] was “Not Active”.

On to `O=C(O)c1cc(-c2ccc(F)cc2F)ccc1O` [DIFLUNISAL], for which the IC50 result in assay [1], in assay [2], in assay [3], in assay [4], in assay [5] and in assay [6] was “Not Active” each time. Moreover, the inhibition constant (Ki) entry in assay [2] is on record as “Not Active”.

Regarding `C[S+](C)[O-]` [DIMETHYL SULFOXIDE], the IC50 entry in assay [1], in assay [2], in assay [3], in assay [4] and in assay [6] was “Not Active” in each case. The inhibitory constant (Ki) entry in assay [2] and in assay [5] was “Not Active” each time.

As for `CC1=NN(c2ccccc2)C(=O)C1` [EDARAVONE], the IC50 result in assay [1], in assay [2], in assay [3], in assay [4], in assay [5] and in assay [6] was “Not Active” in each case. Also, the Ki result in assay [2] was “Not Active”.

In the case of `CC(C)C[C@H]1C(=O)N2CCC[C@H]2[C@]2(O)O[C@](NC(=O)[C@@H]3C=C4c5cccc6[nH]cc(c56)C[C@H]4N(C)C3)(C(C)C)C(=O)N12` [ERGOCRYPTINE], the IC50 in assay [1] (read-out: IC50) was 11 nM; in assay [2], “Not Active”; in assay [3], “Not Active”; in assay [4], “Not Active”; in assay [5], “Not Active”; in assay [6] it was “Not Active”. The Ki in assay [1] (read-out: Ki) is 4.28 nM; in assay [2], “Not Active”.

For `C[C@]12CC[C@@H]3c4ccc(O)cc4CC[C@H]3[C@@H]1C[C@@H](O)[C@@H]2O` [ESTRIOL], the concentration for half-maximal inhibition (IC50) entry in assay [1], in assay [2], in assay [3], in assay [4], in assay [5] and in assay [6] was “Not Active” in each case. In addition, the Ki result in assay [2] was “Not Active”.

`C#C[C@]1(O)CC[C@H]2[C@@H]3CCC4=CC(=O)CC[C@]4(C)[C@H]3CC[C@@]21C` [ETHISTERONE]: the IC50 entry in assay [1], in assay [2], in assay [3], in assay [4], in assay [5] and in assay [6] was “Not Active” throughout. Besides, the Ki entry in assay [2] is given as “Not Active”.

For the compound `CC(O)(P(=O)(O)O)P(=O)(O)O` [ETIDRONIC ACID], the IC50 entry in assay [1], in assay [2], in assay [3], in assay [4], in assay [5] and in assay [6] was “Not Active” in each case. Besides, the Ki result in assay [2] is given as “Not Active”.

In the case of `CC(C)(C(=O)O)c1ccc(C(O)CCCN2CCC(C(O)(c3ccccc3)c3ccccc3)CC2)cc1` (centres undefined) [FEXOFENADINE], the IC50 entry in assay [1], in assay [2], in assay [3], in assay [4], in assay [5] and in assay [6] was “Not Active” throughout. Moreover, the Ki result in assay [2] is given as “Not Active”.

For `CN1CCN(c2c(F)cc3c(=O)c(C(=O)O)cn(CCF)c3c2F)CC1` [FLEROXACIN], the IC50 result in assay [1], in assay [2], in assay [3], in assay [4], in assay [5] and in assay [6] was “Not Active” throughout. The Ki entry in assay [2] is on record as “Not Active”.

As for `O=c1[nH]c(=O)n([C@H]2C[C@H](O)[C@@H](CO)O2)cc1F` [FLOXURIDINE], the IC50 result in assay [1], in assay [2], in assay [3], in assay [4], in assay [5] and in assay [6] was “Not Active” in each case. For the same compound, in assay [2], the Ki result is “Not Active”.

As for `COC(=O)Nc1nc2cc(C(=O)c3ccc(F)cc3)ccc2[nH]1` [FLUBENDAZOLE], the IC50 entry in assay [1], in assay [2], in assay [3], in assay [4], in assay [5] and in assay [6] was “Not Active” in each case. Also, the Ki entry in assay [2] is “Not Active”.
